Patent US20240270821A1, “GIP/GLP1/GCG TRI-RECEPTOR AGONISTS AND USES THEREOF” (priority 2023, published 2024)
Starred links: 1 amine or outer side, 2 acyl side, 3 side chain; linkers in the order of their positions; H or OH if unused. Non-standard residues stand in square brackets, D forms with d. Groups on a side chain read outwards from the residue. *: point of attachment. C18 diacid = O=C(O)CCCCCCCCCCCCCCCCC(=O)*; γGlu = O=C(O)[C@H](CCC(=O)[*:2])N[*:1]; αMe4Pal = C[C@](N)(Cc1ccncc1)C(=O)O; αMeY = C[C@](N)(Cc1ccc(O)cc1)C(=O)O; 4Pal = N[C@@H](Cc1ccncc1)C(=O)O; αMeL = CC(C)C[C@](C)(N)C(=O)O; AEEA = NCCOCCOCC(=O)O; Aib = CC(C)(N)C(=O)O

Key:
Assay type in all cases: cell-based
hGLP-1R [1] = target: T1, hGLP-1R (Homo sapiens, UniProt P43220); assay: Functional cAMP activation in the presence of 0.1% casein (no HSA); conditions: in the presence of 0.1% casein (no HSA); geometric mean; read-out: Relative cAMP EC50, hGLP-1R;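 also: intracellular cAMP rise after 30 min at 37 °C read by HTRF, normalized between buffer only (0%) and maximal control ligand (100%), four-parameter variable-slope fit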
T1 sequence (P43220 24-463): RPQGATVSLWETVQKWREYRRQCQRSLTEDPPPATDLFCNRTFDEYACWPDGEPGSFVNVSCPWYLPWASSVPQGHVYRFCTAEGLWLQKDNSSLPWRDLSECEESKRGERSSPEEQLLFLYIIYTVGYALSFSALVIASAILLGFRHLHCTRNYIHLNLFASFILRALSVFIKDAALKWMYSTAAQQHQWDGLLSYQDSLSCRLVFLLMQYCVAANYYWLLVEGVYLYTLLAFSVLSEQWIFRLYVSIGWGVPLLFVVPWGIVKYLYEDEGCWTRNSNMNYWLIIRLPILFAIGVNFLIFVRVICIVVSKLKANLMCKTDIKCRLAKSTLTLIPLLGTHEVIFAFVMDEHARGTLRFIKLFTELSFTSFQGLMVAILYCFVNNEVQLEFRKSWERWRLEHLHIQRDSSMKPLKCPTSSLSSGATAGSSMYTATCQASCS

hGcgR = hGcgR (Homo sapiens, UniProt P47871); assay: as above; conditions: in the presence of 0.1% casein (no HSA); geometric mean; read-out: Relative cAMP EC50, hGcgR;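 also: intracellular cAMP rise after 30 min at 37 °C, read by HTRF against a cAMP standard curve, scaled from buffer only (0%) to maximal control ligand response (100%)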
Chain of hGcgR (P47871 26-477): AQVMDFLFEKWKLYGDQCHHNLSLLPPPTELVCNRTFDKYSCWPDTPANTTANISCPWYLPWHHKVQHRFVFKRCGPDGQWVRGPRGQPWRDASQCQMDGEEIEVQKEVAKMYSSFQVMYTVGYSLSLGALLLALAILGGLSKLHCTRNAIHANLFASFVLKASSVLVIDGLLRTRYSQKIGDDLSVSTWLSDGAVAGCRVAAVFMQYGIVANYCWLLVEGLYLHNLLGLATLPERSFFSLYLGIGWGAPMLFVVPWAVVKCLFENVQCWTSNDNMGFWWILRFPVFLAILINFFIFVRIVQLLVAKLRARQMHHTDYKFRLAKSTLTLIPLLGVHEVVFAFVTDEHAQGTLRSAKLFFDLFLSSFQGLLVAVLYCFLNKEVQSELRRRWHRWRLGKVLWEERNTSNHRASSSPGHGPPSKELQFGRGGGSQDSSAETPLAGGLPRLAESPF

hGIPR [2] = target: T2, hGIPR (Homo sapiens, UniProt P48546); assay: as above; conditions: in the presence of 0.1% casein (no HSA); geometric mean; read-out: Relative cAMP EC50, hGIPR;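 also: intracellular cAMP rise after 30 min at 37 °C read by HTRF against a standard curve, scaled between buffer alone (0%) and top control ligand concentration (100%), four-parameter fit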
T2 sequence (P48546 22-466): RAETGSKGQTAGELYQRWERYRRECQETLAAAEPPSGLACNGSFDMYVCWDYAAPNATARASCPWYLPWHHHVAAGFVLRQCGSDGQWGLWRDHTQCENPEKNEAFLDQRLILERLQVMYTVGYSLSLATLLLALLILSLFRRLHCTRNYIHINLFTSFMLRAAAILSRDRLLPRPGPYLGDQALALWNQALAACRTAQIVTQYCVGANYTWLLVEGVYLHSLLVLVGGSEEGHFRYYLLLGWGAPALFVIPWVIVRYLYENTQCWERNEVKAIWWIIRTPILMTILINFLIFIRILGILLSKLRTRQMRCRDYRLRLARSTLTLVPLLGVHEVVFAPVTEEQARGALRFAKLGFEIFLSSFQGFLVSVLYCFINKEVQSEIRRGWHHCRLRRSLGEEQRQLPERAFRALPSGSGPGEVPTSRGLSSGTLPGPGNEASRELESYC

human GcgR = human GcgR (Homo sapiens, UniProt P47871); assay: Functional cAMP activity in the presence of 1% HSA; conditions: read-out: cAMP Rel EC50, hGcgR
Chain of human GcgR (P47871 26-477): as the sequence (P47871 26-477) above

hGLP-1R [3] = target: T1, hGLP-1R; assay: Functional cAMP activity in the presence of 1% HSA; conditions: read-out: cAMP Rel EC50, hGLP-1R
hGIPR [4] = target: T2, hGIPR; assay: Functional cAMP activity in the presence of 1% HSA; conditions: read-out: cAMP Rel EC50, hGIPR

| Substance | EC50 (hGLP-1R [1]) | EC50 (hGcgR) | EC50 (hGIPR [2]) | EC50 (human GcgR) | EC50 (hGLP-1R [3]) | EC50 (hGIPR [4]) |
| --- | --- | --- | --- | --- | --- | --- |
| H-Y[Aib]QGTFTSD[4Pal]SQ[αMeL]LDKK([AEEA-γGlu-C18 diacid])AQ[αMe4Pal]AFIE[αMeY]LIEGGPSSGAPPPSGS-NH2 [Example 844] | 0.61 nM | 2.83 nM | 0.27 nM | 583 nM | 151 nM | 43.3 nM |
| H-Y[Aib]QGTFTSD[4Pal]SQ[αMeL]LDKK([AEEA-γGlu-C18 diacid])AQ[αMe4Pal]QFIE[αMeY]LIEGGPSSGAPPPSGS-NH2 [Example 855] | 0.908 nM | 2.67 nM | 0.271 nM | 1030 nM | 207 nM | 46.1 nM |
| H-Y[Aib]QGTFTSD[4Pal]SQ[αMeL]LDKK([AEEA-γGlu-γGlu-C18 diacid])AQ[αMe4Pal]AFIEWLIEGGPSSGAPPPSGS-NH2 [Example 871] | 2.92 nM | 12.6 nM | 0.2 nM | 2060 nM | 230 nM | 35.4 nM |
| H-Y[Aib]QGTFTSD[4Pal]SQ[αMeL]LDKK([AEEA-γGlu-γGlu-C18 diacid])AQ[αMe4Pal]AFIEYLIAGGPSSGEPPPSGS-NH2 [Example 947] | 1.7 nM | 6.99 nM | 0.289 nM | 727 nM | 150 nM | 16.6 nM |
| H-Y[Aib]QGTFTSD[4Pal]SQ[αMeL]LDKK([AEEA-γGlu-γGlu-C18 diacid])AQ[αMe4Pal]AFIEYLIE[Aib]GPSSGAPPPSGS-NH2 [Example 860] | 3.95 nM | 11 nM | 0.202 nM | 565 nM | 414 nM | 19.2 nM |
| H-Y[Aib]QGTFTSD[4Pal]SQ[αMeL]LDKK([Glu-Glu-γGlu-C18 diacid])AQ[αMe4Pal]AFIEYLIAGGPSSGAPPPSGE-NH2 [Example 1087] | 2.63 nM | 15.4 nM | 0.207 nM | 2460 nM | 439 nM | 23.3 nM |
| H-Y[Aib]QGTFTSD[4Pal]SQ[αMeL]LDKK([Glu-Glu-γGlu-C18 diacid])AQ[αMe4Pal]AFIEYLIAGGPSSGAPPPSGEEE-NH2 [Example 1090] | 5.44 nM | 15.6 nM | 0.272 nM | 2010 nM | 619 nM | 27.3 nM |
| H-Y[Aib]QGTFTSD[4Pal]SQ[αMeL]LDKK([Glu-γGlu-C18 diacid])AQ[αMe4Pal]AFIEYLIAGGPSSGAPPPSGEEE-NH2 [Example 1089] | 2.96 nM | 14 nM | 0.213 nM | 2580 nM | 449 nM | 34.6 nM |
| H-Y[Aib]QGTFTSD[4Pal]SQ[αMeL]LDKK([Glu-γGlu-C18 diacid])AQ[αMe4Pal]AFIEYLIAGGPSSGAPPPSGSEE-NH2 [Example 1030] | 1.72 nM | 9.42 nM | 0.122 nM | 1830 nM | 385 nM | 21 nM |
| H-Y[Aib]QGTFTSD[4Pal]SQ[αMeL]LDKK([Glu-γGlu-C18 diacid])AQ[αMe4Pal]AFIEYLIE[Aib]GPSSGAPPPSGS-NH2 [Example 894] | 2.01 nM | 6.09 nM | 0.0752 nM | 2330 nM | 711 nM | 30.9 nM |
| H-Y[Aib]QGTFTSD[4Pal]SQ[αMeL]LDKK([Glu-γGlu-Glu-C18 diacid])AQ[αMe4Pal]AFIEYLIE[Aib]GPSSGAPPPSGS-NH2 [Example 896] | 4.64 nM | 10.6 nM | 0.12 nM | 1110 nM | 535 nM | 16.8 nM |
| H-Y[Aib]QGTFTSD[4Pal]SQ[αMeL]LDKK([dE-dE-γGlu-C18 diacid])AQ[αMe4Pal]AFIEYLIE[Aib]GPSSGAPPPSGS-NH2 [Example 921] | 3.73 nM | 10.4 nM | 0.228 nM | 2130 nM | 261 nM | 12.4 nM |
| H-Y[Aib]QGTFTSD[4Pal]SQ[αMeL]LDKK([dE-γGlu-C18 diacid])AQ[αMe4Pal]AFIEYLIAGGPSSGAPPPSGE-NH2 [Example 1085] | 1.28 nM | 11.6 nM | 0.0827 nM | 1370 nM | 188 nM | 9.84 nM |
| H-Y[Aib]QGTFTSD[4Pal]SQ[αMeL]LDKK([dE-γGlu-C18 diacid])AQ[αMe4Pal]AFIEYLIE[Aib]GPSSGAPPPSGS-NH2 [Example 920] | 2.28 nM | 4.61 nM | 0.0905 nM | 1090 nM | 322 nM | 9.05 nM |
| H-Y[Aib]QGTFTSD[4Pal]SQ[αMeL]LDKK([γGlu-AEEA-γGlu-C18 diacid])AQ[αMe4Pal]AFIEYLIE[Aib]GPSSGAPPPSGS-NH2 [Example 861] | 2.62 nM | 8.59 nM | 0.195 nM | 1350 nM | 322 nM | 18.3 nM |
| H-Y[Aib]QGTFTSD[4Pal]SQ[αMeL]LDKK([γGlu-γGlu-C18 diacid])AQ[Aib]AFIE[αMeY]LLEGGPSSGAPPPSGS-NH2 [Example 938] | 1.84 nM | 13.3 nM | 0.13 nM | 2830 nM | 263 nM | 21.5 nM |
| H-Y[Aib]QGTFTSD[4Pal]SQ[αMeL]LDKK([γGlu-γGlu-C18 diacid])AQ[Aib]AFIE[αMeY]LLEGGPSSGAPPPSGSEE-NH2 [Example 945] | 3.9 nM | 18 nM | 0.246 nM | 2420 nM | 555 nM | 42.5 nM |
| H-Y[Aib]QGTFTSD[4Pal]SQ[αMeL]LDKK([γGlu-γGlu-C18 diacid])AQ[αMe4Pal]AFIEWLIEGGPSSGAPPPSGS-NH2 [Example 872] | 1.01 nM | 4.18 nM | 0.205 nM | 1890 nM | 287 nM | 30.1 nM |
| H-Y[Aib]QGTFTSD[4Pal]SQ[αMeL]LDKK([γGlu-γGlu-C18 diacid])AQ[αMe4Pal]AFIEYLIAGGESSGAPPPSGSEE-NH2 [Example 963] | 1.77 nM | 5.81 nM | 0.244 nM | 900 nM | 215 nM | 25.1 nM |
| H-Y[Aib]QGTFTSD[4Pal]SQ[αMeL]LDKK([γGlu-γGlu-C18 diacid])AQ[αMe4Pal]AFIEYLIAGGPSSGAPPPEGS-NH2 [Example 969] | 1.21 nM | 5.48 nM | 0.142 nM | 660 nM | 113 nM | 12.6 nM |
| H-Y[Aib]QGTFTSD[4Pal]SQ[αMeL]LDKK([γGlu-γGlu-C18 diacid])AQ[αMe4Pal]AFIEYLIAGGPSSGAPPPSGSEE-NH2 [Example 960] | 1.51 nM | 5.5 nM | 0.124 nM | 813 nM | 161 nM | 14.1 nM |
| H-Y[Aib]QGTFTSD[4Pal]SQ[αMeL]LDKK([γGlu-γGlu-C18 diacid])AQ[αMe4Pal]AFIEYLIAGGPSSGEPPPSGS-NH2 [Example 968] | 1.04 nM | 4.72 nM | 0.0928 nM | 625 nM | 103 nM | 11.7 nM |
| H-Y[Aib]QGTFTSD[4Pal]SQ[αMeL]LDKK([γGlu-γGlu-C18 diacid])AQ[αMe4Pal]AFIEYLIE[Aib]GPSSGAPPPEGE-NH2 [Example 884] | 4.17 nM | 3.82 nM | 0.155 nM | 613 nM | 298 nM | 23.5 nM |
